Results: the METLIN SMRT retention time set (Domingo-Almenara et al. 2019)

Assay: gradient 5% acetonitrile 3 min, to 50% in 2 min, to 85% in 15 min, held 3 min, 100 µL/min
Conditions: column: Zorbax Extend-C18 2.1 x 50 mm; eluents: water / acetonitrile, 0.1% formic acid
Outline: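 Retention time was recorded from adduct peaks, which were picked computationally and each inspected manually. Pure standards ran in mixtures of ~100 molecules on HPLC coupled to a quadrupole time-of-flight mass spectrometer, in positive and negative ionization mode, through a Zorbax Extend-C18 column (2.1 × 50 mm, 1.8 μm) at 100 μL/min. Eluents were water and acetonitrile, each with 0.1% formic acid.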

Cc1noc(C2CN(C(=O)Nc3cc(F)ccc3F)CC23CCOCC3)n1 (stereo unspecified)
RP-LC retention time: 733 s

CCOC(=O)c1cccc(NC(=O)N2CCN(C)c3ncccc32)c1
RP-LC retention time: 637 s

O=C(COc1ccccc1)N1CCC(CNS(=O)(=O)c2ccc(Cl)s2)CC1
RP-LC retention time: 843 s

O=C(NCCn1c(=O)n(Cc2ccc(F)cc2)c2cccnc21)c1cccs1
RP-LC retention time: 772 s

CC(C)CCNC(=O)Cn1cccc(-c2nc(-c3ccc(F)cc3)no2)c1=O
RP-LC retention time: 860 s

COCCn1cc(CCNC(=O)Nc2ccc(C)c(F)c2)c2cccnc21
RP-LC retention time: 772 s

Cc1nnsc1C(=O)N1CCc2nc(NC(=O)c3ccco3)sc2C1
RP-LC retention time: 636 s

Cc1ccc(NC(=O)CN2C(=O)C3CCCCN3c3ccc(S(=O)(=O)N(C)C)cc32)cc1C (stereo unspecified)
RP-LC retention time: 922 s

O=C(O)CSc1c(-c2ccccc2)c2cc(Cl)ccc2[nH]c1=O
RP-LC retention time: 806 s

CCOCC(=O)N1CCCCCNC(=O)[C@@H]2CCCC[C@@H]21
RP-LC retention time: 657 s

O=C(NCCSCc1ccco1)c1cc(-c2cccnc2)nc2ccccc12
RP-LC retention time: 738 s

CC(CCc1ccccc1)NC(=O)c1cc2n(n1)CC(C)(C(=O)NC1CCCC1)N(C)C2=O (stereo unspecified)
RP-LC retention time: 844 s

COc1ccc(CSc2nccc3c2ccn3CC(=O)NCc2ccc(OC)c(OC)c2)cc1
RP-LC retention time: 681 s

CCc1ccc(CNC(=O)c2cccc(C3CCCN(C(=O)NC)C3)c2)cc1 (stereo unspecified)
RP-LC retention time: 854 s

Cc1ccnc(N2CCC(C(=O)N3CCN(Cc4ccc5c(c4)OCO5)CC3)CC2)n1
RP-LC retention time: 590 s

O=C(CC1CCCCC1)N1CCCC(COc2ccc(C(=O)N3CCOCC3)cc2)C1 (stereo unspecified)
RP-LC retention time: 856 s

O=C(COc1ccc(Cl)cc1Cl)Nc1ccc2c(c1)N(C(=O)c1cccs1)CC2
RP-LC retention time: 1060 s

CCC(C(=O)NCCc1ccco1)n1c2ccccc2c2cnn(C)c(=O)c21 (stereo unspecified)
RP-LC retention time: 864 s

CSc1cccc(NC(=O)C2CCN(C(=O)c3cc(-c4ccncc4)n[nH]3)CC2)c1
RP-LC retention time: 637 s

Cc1nc(-c2nc3c(s2)CN(C(=O)COc2ccc(Cl)cc2)CC3)cs1
RP-LC retention time: 922 s

CCOc1ccc(-c2noc(Cc3nnc(-c4ccccc4)o3)n2)cc1
RP-LC retention time: 1040 s

COC(=O)c1ccc2c(=O)n(Cc3ccc(F)cc3)c(N3CCCC3)nc2c1
RP-LC retention time: 1060 s

CCS(=O)(=O)c1nc2ccc(NS(=O)(=O)c3cc(OC)ccc3OC)cc2s1
RP-LC retention time: 833 s

CCOc1cc(=O)c(C(=O)N2CCC(C(N)=O)CC2)nn1-c1ccc(F)cc1
RP-LC retention time: 595 s

CCOc1ccc(NC(=O)Cn2c(N3CCOCC3)nc(C)cc2=O)cc1
RP-LC retention time: 654 s

CCn1nc(N2CCCC(NS(=O)(=O)c3c(C)nn(C)c3C)C2)ccc1=O (stereo unspecified)
RP-LC retention time: 642 s

COc1ccc2c(c1)C1(CCN(C(=O)c3ccccc3C(F)(F)F)C1)C(=O)N2 (stereo unspecified)
RP-LC retention time: 714 s

CCOc1ccc(-n2c(=O)c3sccc3n(Cc3nc(-c4ccc(F)cc4)no3)c2=O)cc1
RP-LC retention time: 982 s

Cc1ccc2cc(CCC(=O)N(C)Cc3cn(C)nc3C)c(=O)[nH]c2c1
RP-LC retention time: 645 s

CCOC(=O)c1nc(Nc2cc(C)c(Cl)cc2OC)c2ccccc2n1
RP-LC retention time: 1130 s

COc1cccc(CNC(=O)C2(c3ccc(NC(=O)C(C)C)cc3)CCCCC2)c1
RP-LC retention time: 950 s

COc1ccc(-c2cc(=O)c3c(O)cc(O)cc3o2)cc1OC
RP-LC retention time: 770 s

CCn1cc(C)c(C(=O)O)c1CC(=O)N1CCCCC1
RP-LC retention time: 694 s

Cc1cccc(NC(=O)Cc2nnc(-c3cnccn3)o2)c1C
RP-LC retention time: 678 s

Cc1ccc(Cl)c2c1NC(=O)C2(O)CC(=O)c1ccc(F)cc1 (stereo unspecified)
RP-LC retention time: 786 s

COc1cccc(NC(=O)Cn2nc3c(Oc4ccccc4C)nccn3c2=O)c1
RP-LC retention time: 866 s
